Data: patent US20250230193A1, “CYCLIC COMPOUND HAVING SELECTIVE KRAS INHIBITORY EFFECT ON HRAS AND NRAS” (CHUGAI SEIYAKU KABUSHIKI KAISHA, priority 2022, published 2025)
Where a SMILES comes first, the peptide text is derived from it. Bridges are numbered along the chain shown (N, C = ends). [ ]: non-standard residue; d: D form. The star is where a group is joined. hPhe(3,5-F2-4-CF3) = N[C@@H](CCc1cc(F)c(C(F)(F)F)c(F)c1)C(=O)O; hPhe(3-Cl-4-CF3) = N[C@@H](CCc1ccc(C(F)(F)F)c(Cl)c1)C(=O)O; NPrPhe(4-CF3) = CCCN[C@@H](Cc1ccc(C(F)(F)F)cc1)C(=O)O; NMePhe(4-Me) = CN[C@@H](Cc1ccc(C)cc1)C(=O)O; NMeGly(cPent) = CN[C@H](C(=O)O)C1CCCC1; Nva(3-Et) = CCC(CC)[C@H](N)C(=O)O; NMeD = CN[C@@H](CC(=O)O)C(=O)O; NMeL = CN[C@@H](CC(C)C)C(=O)O; Morpholide = C1CN(*)CCO1; Ac5c = NC1(C(=O)O)CCCC1; Aze = O=C(O)[C@@H]1CCN1; NPrGly = CCCNCC(=O)O; Sar = CNCC(=O)O

Tests used:
[1] = biological target: GDP-bound NRAS wild-type protein (Homo sapiens, UniProt P01111); experiment: Binding to NRAS by surface plasmon resonance (SPR), Single Cycle Kinetics
[2] = biological target: GDP-bound HRAS wild-type protein (Homo sapiens, UniProt P01112); experiment: Binding to HRAS by surface plasmon resonance (SPR), Single Cycle Kinetics
[3] = KD ratio NRAS/KRAS, class symbols
[4] = KD ratio HRAS/KRAS, class symbols

GDP-bound HRAS wild-type protein, sequence (P01112 whole entry): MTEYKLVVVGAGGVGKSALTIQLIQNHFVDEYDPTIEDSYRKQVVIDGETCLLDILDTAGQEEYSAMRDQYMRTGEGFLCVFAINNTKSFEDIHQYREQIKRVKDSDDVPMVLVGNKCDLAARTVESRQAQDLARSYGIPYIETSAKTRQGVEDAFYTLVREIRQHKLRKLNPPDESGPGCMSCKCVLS
GDP-bound NRAS wild-type protein, sequence (P01111 whole entry): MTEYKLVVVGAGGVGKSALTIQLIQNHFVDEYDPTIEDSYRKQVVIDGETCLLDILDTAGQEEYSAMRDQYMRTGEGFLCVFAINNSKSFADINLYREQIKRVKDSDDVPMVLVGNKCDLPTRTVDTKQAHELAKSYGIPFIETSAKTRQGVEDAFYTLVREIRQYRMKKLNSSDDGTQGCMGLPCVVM

In the case of `CCCN1CC(=O)N(C)[C@@H](Cc2ccc(C)cc2)C(=O)N(C)CC(=O)N[C@@H](CCc2ccc(C(F)(F)F)c(Cl)c2)C(=O)N2CCC[C@H]2C(=O)NC2(CCCC2)C(=O)N(C)[C@@H](C2CCCC2)C(=O)N(C)[C@H](C(=O)N2CCOCC2)CC(=O)N(C)[C@@H](CC(C)C)C(=O)N[C@@H]([C@@H](C)CC)C(=O)N(C)CC1=O` [PP0020] ([NMeL]I[Sar][NPrGly][NMePhe(4-Me)][Sar][hPhe(3-Cl-4-CF3)]P[Ac5c][NMeGly(cPent)][NMeD]-Morpholide; lactam N-11), the “NRAS/KRAS (ratio of KD for GDP-bound NRAS wild-type to KD for KRAS)” value ([1]; KD ratio NRAS/KRAS, SPR) is reported as “C (A compound having a KD ratio of 0.1 or more and less than 3 is denoted as C)” and the “HRAS/KRAS (ratio of KD for GDP-bound HRAS wild-type to KD for KRAS)” value ([2]; KD ratio HRAS/KRAS, SPR) is reported as “C (A compound having a KD ratio of 0.1 or more and less than 3 is denoted as C)”.

With `CCO[C@@H]1C[C@H]2C(=O)NC3(CCC3)C(=O)N(C)[C@@H](C3CCCC3)C(=O)N(C)[C@H](C(=O)N(C)CCOC)CC(=O)N(C)[C@@H](CC3CC3)C(=O)N[C@@H]([C@@H](C)CC)C(=O)N(C)CC(=O)N(C)[C@H]3C/C=C\CCN(C3=O)[C@@H](Cc3ccc(C(F)(F)F)cc3)C(=O)N(C)CC(=O)N[C@@H](CCc3ccc(Cl)c(Cl)c3)C(=O)N2C1` [PP1329] the “NRAS/KRAS (ratio of KD value for GDP-bound NRAS wild-type protein to KD value for KRAS)” value ([1]; SPR, KD ratio class) was “AA (a compound having 20 or more is denoted as AA)” and the “HRAS/KRAS (ratio of KD value for GDP-bound HRAS wild-type protein to KD value for KRAS)” value ([2]; SPR, KD ratio class) was “A (a compound having 10 or more and less than 20 is denoted as A)”.

In the case of `CCO[C@@H]1C[C@H]2C(=O)NC3(CC(C)(C)C3)C(=O)N(C)[C@@H](C(CC)CC)C(=O)N(C)[C@H](C(=O)N3CCCC3)CC(=O)N(C)[C@@H](COC)C(=O)N[C@@H]([C@@H](C)CC)C(=O)N(C)CC(=O)N(C)[C@H]3C/C=C\CCN(C3=O)[C@@H](Cc3ccc(C)cc3)C(=O)N(C)CC(=O)N[C@@H](CCc3ccc(C(F)(F)F)c(OC)c3)C(=O)N2C1` [PP2167], the “NRAS/KRAS (ratio of KD value with respect to NRAS to KD value with respect to KRAS)” value ([1]; SPR, GDP-bound NRAS wild-type vs GDP-bound KRAS wild-type) is reported as “AA (a compound having 20 or more is denoted as AA)” and the “HRAS/KRAS (ratio of KD value with respect to HRAS to KD value with respect to KRAS)” value ([2]; SPR, GDP-bound HRAS wild-type vs GDP-bound KRAS wild-type) is reported as “A (a compound having 10 or more and less than 20 is denoted as A)”.

With `CCO[C@@H]1C[C@H]2C(=O)NC3(CC(C)(C)C3)C(=O)N(C)[C@@H](C3CCCC3)C(=O)N(C)[C@H](C(=O)N3CCCCC3)CC(=O)N(C)[C@@H](COC)C(=O)N[C@@H]([C@@H](C)CC)C(=O)N(C)CC(=O)N(C)[C@H]3C/C=C\CCN(C3=O)[C@@H](Cc3ccc(C(F)(F)F)cc3)C(=O)N(C)CC(=O)N[C@@H](CCc3ccc(Cl)c(Cl)c3)C(=O)N2C1` [PP2670] the “NRAS/KRAS (ratio of KD value with respect to GDP-bound NRAS wild-type protein to KD value with respect to KRAS)” value [1, 3] was “AA (a compound having 20 or more is denoted as AA)” and the “HRAS/KRAS (ratio of KD value with respect to GDP-bound HRAS wild-type protein to KD value with respect to KRAS)” value [2, 4] was “A (a compound having 10 or more and less than 20 is denoted as A)”.

With `CCC[C@H]1C(=O)N[C@@H]([C@@H](C)CC)C(=O)N(C)CC(=O)N(C)[C@H]2C/C=C\CCN(C2=O)[C@@H](Cc2ccc(C(F)(F)F)cc2)C(=O)N(C)CC(=O)N[C@@H](CCc2ccc(Cl)c(Cl)c2)C(=O)N2C[C@H](OCC)C[C@H]2C(=O)NC2(CC(C)(C)C2)C(=O)N(C)[C@@H](CC2CC2)C(=O)N(C)[C@H](C(=O)N(C)C)CC(=O)N1C` [PP2811] the “NRAS/KRAS (ratio of KD value with respect to GDP-bound NRAS wild-type protein to KD value with respect to KRAS)” value [1, 3] was “A (a compound having 10 or more and less than 20 is denoted as A)” and the “HRAS/KRAS (ratio of KD value with respect to GDP-bound HRAS wild-type protein to KD value with respect to KRAS)” value [2, 4] was “A (a compound having 10 or more and less than 20 is denoted as A)”.

With `CCCN1C(=O)[C@@H]2CCN2C(=O)CN(C)C(=O)[C@H](C(CC)CC)NC(=O)[C@H](CC(C)C)N(C)C(=O)C[C@@H](C(=O)N2CCOCC2)N(C)C(=O)[C@H](C2CCCC2)N(C)C(=O)C2(CCCC2)NC(=O)[C@@H]2CCCN2C(=O)[C@H](CCc2cc(F)c(C(F)(F)F)c(F)c2)NC(=O)CN(C)C(=O)[C@@H]1Cc1ccc(C(F)(F)F)cc1` [PP0804] ([NMeL][Nva(3-Et)][Sar][Aze][NPrPhe(4-CF3)][Sar][hPhe(3,5-F2-4-CF3)]P[Ac5c][NMeGly(cPent)][NMeD]-Morpholide; lactam N-11) the “NRAS/KRAS (ratio of KD value with respect to GDP-bound NRAS wild-type protein to KD value with respect to KRAS)” value ([1]; KD ratio NRAS/KRAS, SPR) was “C (A compound having a KD ratio of 0.1 or more and less than 3 is denoted as C)” and the “HRAS/KRAS (ratio of KD value with respect to GDP-bound HRAS wild-type protein to KD value with respect to KRAS)” value ([2]; KD ratio HRAS/KRAS, SPR) was “B (a compound having 3 or more and less than 10 is denoted as B)”.
